Legend:
[1] = target: T1, sPLA2, human recombinant type V (Homo sapiens, UniProt P39877); assay: EnzChek phospholipase A2 fluorogenic assay (selectivity) with sPLA2; type: biochemical; conditions: 10 μM, relative to DMSO control
T1 construct: purchased Cayman Chemical 10009563
T1 sequence (P39877 21-138): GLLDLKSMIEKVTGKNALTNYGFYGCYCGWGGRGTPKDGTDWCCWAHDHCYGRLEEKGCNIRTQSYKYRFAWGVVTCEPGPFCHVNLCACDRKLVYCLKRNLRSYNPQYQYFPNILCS
Procedure: To further explore their selectivity towards cPLA2, 10 μM of 2g and 2i were evaluated for their inhibition against recombinant sPLA2 using the fluorogenic PLA2 assay (Fig. 3C).
The assay was conducted as described above. Instead of adding cPLA2, it was replaced by sPLA2. 48 μL of 1X phospholipase A2 reaction buffer was added into each well of a 96-wells plate. This was followed by addition of 1 μL of sPLA2, human recombinant type V (10009563, Cayman Chemical) and 1 μL of 1 mM of the respective compound or thioetheramide-PC (62750, Cayman Chemical) dissolved in DMSO. The final concentration of the test compound achieved is 10 μM. The reaction was initiated by adding 50 μL of the substrate solution and incubating at room temperature for 1 h. Fluorescence was measured using a Varioskan plate reader by exciting at 485 nm, while fluorescence emission was detected at 515 nm. Positive control was performed when 1 μL of test compound was replaced by vehicle DMSO. % activity was expressed as the mean value of duplicate wells from four experiments. % activity was calculated by the following formula:2 %activity=fluorescenceoftestedwell−background/fluorescenceofpostivecontrol−background

BV-2 cells = assay: MTS cell proliferation assay on BV-2 cells; type: cell-based, murine; conditions: 10 μM, 48 h and 72 h, vs vehicle control
Procedure: (§1) To explore whether the inhibitors are cytotoxic, MTS assay were conducted on BV-2 cells, a murine microglial cell line derived from post-natal mouse cerebella, and HEK293T cells that are derived from human embryonic kidney. Both cell types were treated with 10 μM of 1a, 2g and 2i for 48 h and 72 h (Fig. 3A,B). Dimethyl sulfoxide (DMSO) vehicle control was also included as the compounds were dissolved in DMSO.
(§2) Cells were plated on a 96-wells plate and grown for 24 h to a density of 8000 cells per well for both HEK293T and BV-2 cells. Cells were cultured at 37 °C under a 5% CO2 environment in 100 μL of culture medium. Thereafter, the compound of interest dissolved in culture medium at a concentration of 10 μM was replaced into each well. DMSO was added as vehicle in the control group. 3 biological replicates were performed. The plates were then incubated at 37 °C with 5% CO2 for 48 h and 72 h. At each individual time point, 20 μL of CellTiter 96® AQueous One Solution (MTS reagent) was added into each well and re-incubated at 37 °C with 5% CO2 without light for 3 h. Colorimetric readings were taken using a Varioskan plate reader at 490 nm and analyzed. Three independent biological repeats with four technical replicates were performed.

recombinant cPLA2 = target: T2, recombinant cPLA2 (Homo sapiens, UniProt P47712); assay: EnzChek phospholipase A2 fluorogenic assay (% activity) at 10 μM; type: biochemical; conditions: 10 μM compound
T2 construct: purchased US Biological P4074-03R
T2 sequence (P47712 1-749): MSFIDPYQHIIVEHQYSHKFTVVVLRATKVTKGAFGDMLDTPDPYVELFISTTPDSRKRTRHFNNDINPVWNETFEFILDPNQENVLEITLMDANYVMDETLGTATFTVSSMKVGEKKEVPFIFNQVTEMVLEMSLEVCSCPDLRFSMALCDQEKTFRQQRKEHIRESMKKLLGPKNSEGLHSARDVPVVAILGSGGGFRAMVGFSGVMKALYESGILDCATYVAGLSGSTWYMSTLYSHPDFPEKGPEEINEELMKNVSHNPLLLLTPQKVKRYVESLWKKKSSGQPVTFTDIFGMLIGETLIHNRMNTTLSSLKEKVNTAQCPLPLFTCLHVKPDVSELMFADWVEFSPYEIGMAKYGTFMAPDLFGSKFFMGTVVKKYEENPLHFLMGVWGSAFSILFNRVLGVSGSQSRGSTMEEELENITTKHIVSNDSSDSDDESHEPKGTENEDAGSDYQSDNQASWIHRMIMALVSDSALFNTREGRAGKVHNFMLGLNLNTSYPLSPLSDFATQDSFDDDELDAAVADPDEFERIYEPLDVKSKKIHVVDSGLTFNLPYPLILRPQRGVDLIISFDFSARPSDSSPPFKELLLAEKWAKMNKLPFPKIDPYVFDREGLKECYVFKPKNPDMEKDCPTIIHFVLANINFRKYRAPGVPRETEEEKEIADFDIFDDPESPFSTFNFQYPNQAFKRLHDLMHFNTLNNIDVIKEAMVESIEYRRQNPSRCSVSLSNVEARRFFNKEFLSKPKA
Procedure: The compounds were evaluated with a fluorogenic PLA2 assay kit (EnzChek® Phospholipase A2 Assay Kit, Catalog No: E10217) at a standard 10 μM concentration. Potential inhibitors were determined by their ability to lower cPLA2 activity to a greater extent than 1a.
The assay was conducted according to the manufacturer’s instruction (E10217, Molecular Probes) with slight modification. Briefly, substrate solution was separately prepared by mixing 5 μL of DOPG, 5 μL of DOPC and 5 μL of substrate respectively in 1.5 mL of 1X phospholipase A2 reaction buffer. The mixture was vortexed vigorously for 3 min before allowing to stand at room temperature for 1 h. 48 μL of 1X phospholipase A2 reaction buffer were added into each well of a 96-wells plate. This was followed by addition of 1 μL of recombinant cPLA2 (P4074-03R, US Biological) and 1 μL of 1 mM of the respective compound dissolved in DMSO. The final concentration of the test compound achieved is 10 μM. The reaction was initiated by adding 50 μL of the substrate solution and incubating at room temperature for 1 h. Fluorescence was measured using a Varioskan plate reader (Thermo Scientific, MA, USA) by exciting at 485 nm, while fluorescence emission was detected at 515 nm. Positive control was performed when 1 μL of test compound was replaced by vehicle DMSO. % activity was expressed as the mean value of duplicate wells from three experiments. % activity was calculated by the following formula1 %activity=fluorescenceoftestedwell−background/fluorescenceofpostivecontrol−background

HEK293T cells = assay: MTS cell proliferation assay on HEK293T cells; type: cell-based, human; conditions: 10 μM, 48 h and 72 h, vs vehicle control
Procedure: as §1, §2

## CCCCC/C=C\C/C=C\C/C=C\C/C=C\CCCCC(=O)Nc1cccc(C(=O)O)c1 [2i]
[1]
  sPLA2 activity: did not provide a significant change in sPLA2 activity
BV-2 cells
  cytotoxicity (MTS) on BV-2 cells: no significant toxic effects
Recombinant cPLA2
  inhibition at 10 µM: 88.5%
Recombinant cPLA2; 1 h, room temperature
  remaining activity at 10 µM: 11.5 ± 1%
HEK293T cells
  cytotoxicity (MTS) on HEK293T cells: no significant toxic effects

Source: paper PMC5651845, “A New Generation of Arachidonic Acid Analogues as Potential Neurological Agent Targeting Cytosolic Phospholipase A2” (Scientific Reports, 2017)
